The source made the active and inactive calls.
Columns and labels:
[1] = target: T1, Apoptotic protease-activating factor 1 (Homo sapiens, UniProt O14727); assay type: functional
T1 sequence (O14727 whole entry): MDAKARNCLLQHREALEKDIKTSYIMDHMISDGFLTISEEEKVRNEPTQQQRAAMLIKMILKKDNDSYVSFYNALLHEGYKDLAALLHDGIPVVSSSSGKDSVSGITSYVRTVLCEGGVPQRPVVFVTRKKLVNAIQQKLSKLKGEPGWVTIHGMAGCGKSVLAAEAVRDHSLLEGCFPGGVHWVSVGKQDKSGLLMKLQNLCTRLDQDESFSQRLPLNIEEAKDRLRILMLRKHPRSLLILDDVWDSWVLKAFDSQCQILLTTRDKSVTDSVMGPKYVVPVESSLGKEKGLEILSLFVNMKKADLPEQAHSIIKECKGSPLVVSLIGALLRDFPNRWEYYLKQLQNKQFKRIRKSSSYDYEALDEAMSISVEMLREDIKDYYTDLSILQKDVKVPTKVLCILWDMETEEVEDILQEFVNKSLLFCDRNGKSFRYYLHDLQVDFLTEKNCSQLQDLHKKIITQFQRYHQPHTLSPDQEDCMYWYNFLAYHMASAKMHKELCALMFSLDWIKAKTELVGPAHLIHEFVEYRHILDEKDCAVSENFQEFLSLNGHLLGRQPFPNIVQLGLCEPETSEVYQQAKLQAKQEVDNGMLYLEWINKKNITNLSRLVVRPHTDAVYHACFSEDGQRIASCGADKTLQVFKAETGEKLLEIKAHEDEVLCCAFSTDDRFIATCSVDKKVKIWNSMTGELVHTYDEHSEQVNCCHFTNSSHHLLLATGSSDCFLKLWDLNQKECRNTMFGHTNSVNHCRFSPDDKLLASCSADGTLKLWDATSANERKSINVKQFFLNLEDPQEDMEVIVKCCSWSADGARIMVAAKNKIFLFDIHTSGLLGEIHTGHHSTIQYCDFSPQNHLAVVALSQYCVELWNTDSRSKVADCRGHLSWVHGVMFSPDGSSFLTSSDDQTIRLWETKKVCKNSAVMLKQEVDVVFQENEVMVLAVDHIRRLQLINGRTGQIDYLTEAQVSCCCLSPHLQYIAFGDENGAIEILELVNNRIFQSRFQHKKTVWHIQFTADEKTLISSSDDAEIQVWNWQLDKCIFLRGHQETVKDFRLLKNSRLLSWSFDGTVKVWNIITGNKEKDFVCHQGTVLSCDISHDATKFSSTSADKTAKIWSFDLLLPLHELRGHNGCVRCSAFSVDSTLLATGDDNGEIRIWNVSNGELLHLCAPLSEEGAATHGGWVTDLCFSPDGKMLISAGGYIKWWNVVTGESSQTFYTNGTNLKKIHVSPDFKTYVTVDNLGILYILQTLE

[2] = target: Mitochondrial peptide methionine sulfoxide reductase (Bos taurus, UniProt P54149); assay type: functional;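 also: absorbance read-out, biochemical high-throughput dose-response screen for MsrA inhibitors, confirmatory; recombinant bovine MsrA coupled to E. coli TrxB with NADPH and selenocystamine; potency is for inhibitors of MsrA activity on DMSO substrate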
Mitochondrial peptide methionine sulfoxide reductase, sequence (P54149 whole entry): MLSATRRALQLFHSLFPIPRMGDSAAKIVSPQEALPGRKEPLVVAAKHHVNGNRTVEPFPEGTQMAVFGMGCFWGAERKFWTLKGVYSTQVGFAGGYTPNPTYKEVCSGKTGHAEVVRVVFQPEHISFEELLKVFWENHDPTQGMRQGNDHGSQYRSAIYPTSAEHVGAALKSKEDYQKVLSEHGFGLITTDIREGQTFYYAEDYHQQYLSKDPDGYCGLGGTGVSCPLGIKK

[3] = target: Potassium voltage-gated channel subfamily KQT member 2 (Rattus norvegicus, UniProt O88943); assay: KCNQ2 potassium channel inhibitors, dose response, cell-based, automated electrophysiology, set II, rat KCNQ2 (AID 588637); assay type: functional
Potassium voltage-gated channel subfamily KQT member 2, sequence (O88943 whole entry): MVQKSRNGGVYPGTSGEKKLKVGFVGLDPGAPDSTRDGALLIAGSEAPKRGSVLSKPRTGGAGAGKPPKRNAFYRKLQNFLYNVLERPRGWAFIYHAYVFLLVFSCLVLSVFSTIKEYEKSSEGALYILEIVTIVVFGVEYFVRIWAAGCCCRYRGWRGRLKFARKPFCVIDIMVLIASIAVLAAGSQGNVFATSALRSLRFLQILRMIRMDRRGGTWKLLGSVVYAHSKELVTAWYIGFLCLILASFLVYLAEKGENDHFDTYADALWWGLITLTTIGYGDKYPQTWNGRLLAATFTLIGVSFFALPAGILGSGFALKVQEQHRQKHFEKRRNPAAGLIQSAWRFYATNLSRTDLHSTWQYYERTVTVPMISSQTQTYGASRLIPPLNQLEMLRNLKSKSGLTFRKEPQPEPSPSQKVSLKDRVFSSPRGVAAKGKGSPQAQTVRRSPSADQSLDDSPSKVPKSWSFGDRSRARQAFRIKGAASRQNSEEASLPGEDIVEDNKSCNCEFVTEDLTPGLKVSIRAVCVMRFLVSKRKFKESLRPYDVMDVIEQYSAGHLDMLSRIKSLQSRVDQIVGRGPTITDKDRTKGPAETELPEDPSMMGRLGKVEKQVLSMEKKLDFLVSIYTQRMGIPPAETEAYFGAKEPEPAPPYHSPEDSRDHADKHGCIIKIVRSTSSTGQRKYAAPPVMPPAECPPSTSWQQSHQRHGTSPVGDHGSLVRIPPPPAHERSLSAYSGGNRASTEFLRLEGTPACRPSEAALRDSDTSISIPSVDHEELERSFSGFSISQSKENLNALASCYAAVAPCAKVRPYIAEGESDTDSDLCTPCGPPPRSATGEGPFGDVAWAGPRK

[4] = inhibitors of firefly luciferase expression or activity, dose response, H4 neuroglioma cells, luminescence (AID 1990); assay type: functional, cell-based
[5] = inhibitors of SNCA 5'UTR-driven reporter translation, confirmation, H4 neuroglioma cells, luminescence (AID 1988); assay type: functional, cell-based
Cysteine protease ATG4B = target: T2, Cysteine protease ATG4B (Homo sapiens, UniProt Q9Y4P1); assay type: functional;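 also: Fluorescence-based dose-response confirmation assay measuring inhibition of ATG4B activity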
T2 sequence (Q9Y4P1 whole entry): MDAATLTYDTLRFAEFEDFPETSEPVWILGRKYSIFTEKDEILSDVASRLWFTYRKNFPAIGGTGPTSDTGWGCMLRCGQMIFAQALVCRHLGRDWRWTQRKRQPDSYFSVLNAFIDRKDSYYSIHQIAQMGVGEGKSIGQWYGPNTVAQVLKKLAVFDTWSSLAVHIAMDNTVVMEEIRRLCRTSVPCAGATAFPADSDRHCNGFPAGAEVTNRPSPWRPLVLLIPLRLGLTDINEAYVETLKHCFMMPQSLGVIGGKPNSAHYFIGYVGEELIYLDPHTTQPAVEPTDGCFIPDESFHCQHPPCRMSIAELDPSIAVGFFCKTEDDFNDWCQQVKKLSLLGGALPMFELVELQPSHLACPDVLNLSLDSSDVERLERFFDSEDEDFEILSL

[6] = inhibitors of HIV Env-driven cell fusion, dose response, cherry-pick (AID 652057); assay type: functional, cell-based
[7] = inhibitors of clade B AD8 Env fusion, dose response, cell-based, cherry-pick (AID 652062); assay type: functional;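 also: luciferase signal from cell-cell fusion driven by HIV-1 clade B AD8 Env; potency is for inhibitors of fusion seen as a drop in luminescence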
[8] = Luminescence Cell-Based Dose Response HTS to Identify Inhibitors of 5'UTR Stem-Loop Driven Prion Protein mRNA Translation in H4 Neuroglioblastoma Cells. [Related pubchem assays: 1827 (Project Summary), 1813 (Primary HTS)]; assay type: functional
HEK293 = assay: inhibitors of LMP1-driven NF-kB reporter, dose response, cell-based, HEK293, luciferase, cherry-pick (AID 588343); assay type: functional; conditions: Homo sapiens
Interleukin-8 = Interleukin-8 (Homo sapiens, UniProt P10145); assay: Dose Response confirmation of uHTS small molecule hits for cystic fibrosis induced NFkb Inhibitors in a PAF-induced IL8 counterscreen.; assay type: functional; conditions: read-out: IC50_Mean
Interleukin-8, sequence (P10145 whole entry, the tested form may be a part): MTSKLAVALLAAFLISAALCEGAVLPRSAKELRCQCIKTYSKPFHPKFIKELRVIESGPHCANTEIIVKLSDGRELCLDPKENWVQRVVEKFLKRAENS

[9] = off-target signal loss in HeLa-CEM21 co-culture – HeLa F-luc CTL cells, cherry-picked, counter-screen for HIV-1 Env fusion inhibitor project, dose response (AID 652040); assay type: functional, cell-based;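 also: potency for signal decrease marking cytotoxic or nonspecific inhibition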
Phospholipase A2 = Phospholipase A2 (Homo sapiens, UniProt P04054); assay type: functional;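 also: confirmatory dose-response counterscreen on phospholipase A2, testing hits that came from an ultra-high-throughput screen for ATG4B inhibitors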
Phospholipase A2, sequence (P04054 whole entry, the tested form may be a part): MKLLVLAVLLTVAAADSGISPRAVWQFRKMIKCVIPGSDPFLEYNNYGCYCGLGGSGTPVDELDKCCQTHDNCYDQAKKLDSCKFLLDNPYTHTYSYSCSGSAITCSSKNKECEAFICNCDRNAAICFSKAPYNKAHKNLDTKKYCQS

[10] = ZM109 Env clade C HIV-1 fusion inhibitors, dose response, HeLa effector, CEM target cells, luciferase, cherry-pick (AID 652058); assay type: functional, cell-based
[11] = target: T3, Sentrin-specific protease 6 (Homo sapiens, UniProt Q9GZR1); assay: SAR Analysis of small molecule inhibitors of Sentrin-specific protease 6 (SENP6) using a Luminescent assay. [Related pubchem assays (depositor defined):AID2582, AID2599]; assay type: functional
T3 sequence (Q9GZR1 whole entry): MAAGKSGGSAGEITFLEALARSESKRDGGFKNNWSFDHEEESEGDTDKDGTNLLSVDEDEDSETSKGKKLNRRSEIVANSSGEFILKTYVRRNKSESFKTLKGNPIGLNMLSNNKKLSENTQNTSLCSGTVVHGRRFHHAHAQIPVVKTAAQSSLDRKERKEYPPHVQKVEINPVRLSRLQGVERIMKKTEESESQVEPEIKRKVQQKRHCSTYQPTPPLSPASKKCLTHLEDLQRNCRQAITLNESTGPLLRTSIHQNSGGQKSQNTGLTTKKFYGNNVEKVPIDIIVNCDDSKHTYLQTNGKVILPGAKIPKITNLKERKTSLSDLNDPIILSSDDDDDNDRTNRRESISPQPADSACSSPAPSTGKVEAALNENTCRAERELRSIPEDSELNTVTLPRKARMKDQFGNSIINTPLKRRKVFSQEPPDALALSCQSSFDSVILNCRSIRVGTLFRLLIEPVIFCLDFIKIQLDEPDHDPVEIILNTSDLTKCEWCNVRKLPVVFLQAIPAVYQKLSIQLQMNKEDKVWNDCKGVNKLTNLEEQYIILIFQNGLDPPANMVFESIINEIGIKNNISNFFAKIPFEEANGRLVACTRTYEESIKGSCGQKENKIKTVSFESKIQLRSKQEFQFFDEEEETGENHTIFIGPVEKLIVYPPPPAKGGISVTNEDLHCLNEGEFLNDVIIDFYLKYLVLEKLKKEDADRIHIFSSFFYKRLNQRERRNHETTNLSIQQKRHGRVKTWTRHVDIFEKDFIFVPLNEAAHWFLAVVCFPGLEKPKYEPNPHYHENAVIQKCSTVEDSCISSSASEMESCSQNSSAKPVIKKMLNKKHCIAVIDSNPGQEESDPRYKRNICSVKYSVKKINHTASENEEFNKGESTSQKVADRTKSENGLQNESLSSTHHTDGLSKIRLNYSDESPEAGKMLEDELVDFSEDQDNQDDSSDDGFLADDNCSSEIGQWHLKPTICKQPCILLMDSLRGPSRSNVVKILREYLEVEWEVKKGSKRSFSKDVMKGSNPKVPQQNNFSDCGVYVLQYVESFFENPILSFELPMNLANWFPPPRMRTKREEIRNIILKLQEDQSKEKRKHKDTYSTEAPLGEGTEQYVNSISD

[12] = target: T4, Sentrin-specific protease 8 (Homo sapiens, UniProt Q96LD8); assay: SENP8 protease inhibitors, SAR follow-up, biochemical, luminescence (AID 504501); assay type: functional
T4 sequence (Q96LD8 whole entry): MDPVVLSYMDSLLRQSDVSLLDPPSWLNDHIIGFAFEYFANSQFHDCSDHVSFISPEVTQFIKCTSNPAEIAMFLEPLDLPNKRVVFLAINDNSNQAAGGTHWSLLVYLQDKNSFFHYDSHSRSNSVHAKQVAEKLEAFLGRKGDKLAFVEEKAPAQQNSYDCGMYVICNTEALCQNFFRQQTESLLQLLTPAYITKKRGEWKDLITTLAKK

Caspase-3 = target: T5, Caspase-3 (Homo sapiens, UniProt P42574); assay: SAR Analysis of small molecule inhibitors of Sentrin-specific proteases (SENPs) using a Caspase-3 Selectivity assay. [Related pubchem assays (depositor defined):AID2540, AID2599, AID434973, AID489001]; assay type: functional
T5 sequence (P42574 whole entry): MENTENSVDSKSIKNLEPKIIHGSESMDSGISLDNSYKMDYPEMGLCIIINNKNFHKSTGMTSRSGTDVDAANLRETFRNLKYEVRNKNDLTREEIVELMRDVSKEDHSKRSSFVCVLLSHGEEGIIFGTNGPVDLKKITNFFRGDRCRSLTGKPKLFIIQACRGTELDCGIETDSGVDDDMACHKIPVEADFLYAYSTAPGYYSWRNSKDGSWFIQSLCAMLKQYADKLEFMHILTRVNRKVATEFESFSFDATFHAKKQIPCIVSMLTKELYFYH

[13] = target: T6, Sentrin-specific protease 7 (Homo sapiens, UniProt Q9BQF6); assay: SENP7 protease inhibitors, SAR follow-up, biochemical, luminescence (AID 504497); assay type: functional
T6 sequence (Q9BQF6 whole entry): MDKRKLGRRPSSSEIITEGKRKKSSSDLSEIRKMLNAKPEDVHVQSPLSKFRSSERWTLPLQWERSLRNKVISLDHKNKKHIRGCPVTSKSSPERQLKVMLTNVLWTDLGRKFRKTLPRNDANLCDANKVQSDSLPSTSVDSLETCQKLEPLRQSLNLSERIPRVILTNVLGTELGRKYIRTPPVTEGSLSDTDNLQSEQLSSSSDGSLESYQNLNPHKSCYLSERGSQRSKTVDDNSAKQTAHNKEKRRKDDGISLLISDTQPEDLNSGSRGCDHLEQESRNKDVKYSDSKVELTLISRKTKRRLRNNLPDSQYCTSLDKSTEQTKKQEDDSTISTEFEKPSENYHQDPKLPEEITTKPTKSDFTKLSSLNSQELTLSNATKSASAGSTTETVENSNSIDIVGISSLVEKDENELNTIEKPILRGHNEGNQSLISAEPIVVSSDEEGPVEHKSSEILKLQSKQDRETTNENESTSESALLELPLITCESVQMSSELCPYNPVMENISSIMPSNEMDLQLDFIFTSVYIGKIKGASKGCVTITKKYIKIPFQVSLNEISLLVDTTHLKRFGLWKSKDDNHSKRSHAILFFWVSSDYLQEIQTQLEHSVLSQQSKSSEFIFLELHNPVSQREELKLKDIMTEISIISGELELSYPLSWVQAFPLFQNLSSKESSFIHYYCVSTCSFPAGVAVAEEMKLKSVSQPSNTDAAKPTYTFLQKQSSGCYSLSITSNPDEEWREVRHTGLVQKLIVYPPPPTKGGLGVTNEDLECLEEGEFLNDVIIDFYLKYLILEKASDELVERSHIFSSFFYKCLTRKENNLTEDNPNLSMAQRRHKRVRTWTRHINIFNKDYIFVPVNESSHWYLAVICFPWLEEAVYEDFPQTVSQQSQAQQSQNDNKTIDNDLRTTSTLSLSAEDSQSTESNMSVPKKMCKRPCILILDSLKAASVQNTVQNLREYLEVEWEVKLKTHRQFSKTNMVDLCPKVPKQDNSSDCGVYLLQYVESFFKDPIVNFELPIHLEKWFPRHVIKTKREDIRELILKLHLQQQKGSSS

Cytochrome P450 2D6 = Cytochrome P450 2D6 (Homo sapiens, UniProt P10635);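 also: CYP2D6 member of a cytochrome P450 panel assay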
Cytochrome P450 2D6, sequence (P10635 whole entry): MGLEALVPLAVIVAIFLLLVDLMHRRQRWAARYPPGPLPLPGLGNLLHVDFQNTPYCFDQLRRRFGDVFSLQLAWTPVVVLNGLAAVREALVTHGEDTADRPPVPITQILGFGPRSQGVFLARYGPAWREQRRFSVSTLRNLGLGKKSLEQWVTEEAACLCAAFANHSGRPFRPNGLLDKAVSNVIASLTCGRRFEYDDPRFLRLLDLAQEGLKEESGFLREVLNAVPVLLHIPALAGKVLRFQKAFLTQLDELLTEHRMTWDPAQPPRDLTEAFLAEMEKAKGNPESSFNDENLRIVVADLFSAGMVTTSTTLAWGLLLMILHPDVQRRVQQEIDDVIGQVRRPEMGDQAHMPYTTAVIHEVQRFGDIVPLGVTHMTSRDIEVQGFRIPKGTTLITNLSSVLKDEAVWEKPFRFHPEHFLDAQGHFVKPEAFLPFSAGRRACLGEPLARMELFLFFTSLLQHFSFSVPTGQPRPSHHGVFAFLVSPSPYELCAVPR

[14] = target: Dual specificity tyrosine-phosphorylation-regulated kinase 1A (Rattus norvegicus, UniProt Q63470); assay type: biochemical, Homo sapiens
H9c2 = assay: cells; assay type: functional, cell-based; conditions: Rattus norvegicus, H9c2, Myocardium;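 also: confirmatory concentration-response retest of ultra-high-throughput screening hits for modulation of myocardial damage; cell death induced by hydrogen peroxide oxidative stress; compound pretreatment for 60 min then peroxide exposure for 2 h; potency is for protecting the cells against peroxide damage rather than for killing them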

In the case of `Cc1cccc(C)c1NC(=O)Cn1cc(C=O)c2ccccc21`, the IC50 [1] is reported as > 100 µM (inactive).

With `Cc1cccc(/N=c2\oc3cc(O)ccc3cc2C(N)=O)c1` the IC50 [2] was 155 µM (inactive).

For `Cc1ccccc1NC(=O)c1ccccc1N(C)S(=O)(=O)c1ccccc1`, the IC50 [3] was 0.0922 µM (active).

For `NC(=O)c1sc2nc3c(c(-c4ccccc4)c2c1N)CCC3`, the EC50 [4] was 25.6 µM (active), the EC50 [5] was 16.6 µM (active) and the IC50 (Cysteine protease ATG4B) was 12.3 µM (active). The AC50 [6] was 1.87 µM (active), the AC50 [7] was 1.55 µM (active) and the EC50 [8] was 6.39 µM (active). The AC50 (HEK293) was 14.6 µM (active), the IC50 (Interleukin-8) was 15.3 µM (inactive) and the AC50 [9] was 10.2 µM (active). For the same compound, the IC50 (Phospholipase A2) was 8.38 µM (active) and the AC50 [10] was 0.736 µM (active).

In the case of `Cc1cccc(N/N=C/c2cn(Cc3ccccc3)c3ccccc23)c1`, the IC50 [11] is reported as > 99 µM (inactive), the IC50 [12] is reported as > 99 µM (inactive) and the IC50 (Caspase-3) is reported as > 99 µM (inactive). The IC50 [13] was > 99 µM (inactive).

In the case of `COc1cc2c(cc1O)C[C@H]1c3c(cc(O)c(OC)c3-2)CCN1C` [BOLDINE], the AC50 (Cytochrome P450 2D6) is reported as 6.31 µM (inconclusive), the AC50 [14] is reported as 4.84 µM (active) and the IC50 [2] is reported as 47.8 µM (inactive).

For `COc1cc(-c2cc(C(=O)Nc3ccccc3N3CCOCC3)c3ccccc3n2)cc(OC)c1OC`, the IC50 [3] was 0.11 µM (active) and the IC50 (H9c2) was > 79 µM (inactive).

With `COc1cccc2c(SCC(=O)N/N=C/c3ccccc3)cc(C)nc12` the IC50 (Interleukin-8) was 11.3 µM (inactive).

For `COc1ccc(C2CCCN2C(=O)c2sc3ccccc3c2Cl)cc1OC` (stereo not drawn), the IC50 [11] was > 99 µM (inactive), the IC50 [12] was > 99 µM (inactive) and the IC50 (Caspase-3) was > 99 µM (inactive). The IC50 [13] was > 99 µM (inactive).

From ChEMBL document CHEMBL1201862, “PubChem BioAssay data set” (2004)
